Assay results taken from patent publication US20250235543A1, “MODIFIED PROTEINS AND PROTEIN DEGRADERS” (Cullgen (Shanghai), Inc., priority 2021, published 2025).
Like-named read-outs stand apart in the source and are kept apart here.

Key:
[1] = tested on: cyclin D1; assay: Cyclin D1 percentage degradation in Calu-1 cells (immunoblotting); format: cell-based; settings: 16 hours
In short: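 Cells were rinsed once in cold PBS and lysed in cold RIPA buffer containing protease and phosphatase inhibitors, with gentle agitation at 4° C. for 30 min. Lysates were spun at 13,000 rpm for 10 min at 4° C., protein was measured by BCA, and samples were boiled in Laemmli buffer at 99° C. for 5 min before SDS-PAGE immunoblotting.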

[2] = molecular target: T1, DDB1 (Homo sapiens, UniProt Q16531, D705G/DEL396-460/DEL463-701/I704S/T703N); assay: SPR binding assay to immobilized DDB1ΔBPB; settings: binding affinities to DDB1
T1 construct: His6 (N, cleaved yes); TEV protease cleavage site (N, cleaved yes); made in house; host or cells: SF9 insect cells, Bac-to-Bac baculovirus, pFastBacHTB vector
T1 sequence (Q16531 other isoform, or with tags, fused parts or gaps DEL396-460/DEL463-701/T703N/I704S/D705G): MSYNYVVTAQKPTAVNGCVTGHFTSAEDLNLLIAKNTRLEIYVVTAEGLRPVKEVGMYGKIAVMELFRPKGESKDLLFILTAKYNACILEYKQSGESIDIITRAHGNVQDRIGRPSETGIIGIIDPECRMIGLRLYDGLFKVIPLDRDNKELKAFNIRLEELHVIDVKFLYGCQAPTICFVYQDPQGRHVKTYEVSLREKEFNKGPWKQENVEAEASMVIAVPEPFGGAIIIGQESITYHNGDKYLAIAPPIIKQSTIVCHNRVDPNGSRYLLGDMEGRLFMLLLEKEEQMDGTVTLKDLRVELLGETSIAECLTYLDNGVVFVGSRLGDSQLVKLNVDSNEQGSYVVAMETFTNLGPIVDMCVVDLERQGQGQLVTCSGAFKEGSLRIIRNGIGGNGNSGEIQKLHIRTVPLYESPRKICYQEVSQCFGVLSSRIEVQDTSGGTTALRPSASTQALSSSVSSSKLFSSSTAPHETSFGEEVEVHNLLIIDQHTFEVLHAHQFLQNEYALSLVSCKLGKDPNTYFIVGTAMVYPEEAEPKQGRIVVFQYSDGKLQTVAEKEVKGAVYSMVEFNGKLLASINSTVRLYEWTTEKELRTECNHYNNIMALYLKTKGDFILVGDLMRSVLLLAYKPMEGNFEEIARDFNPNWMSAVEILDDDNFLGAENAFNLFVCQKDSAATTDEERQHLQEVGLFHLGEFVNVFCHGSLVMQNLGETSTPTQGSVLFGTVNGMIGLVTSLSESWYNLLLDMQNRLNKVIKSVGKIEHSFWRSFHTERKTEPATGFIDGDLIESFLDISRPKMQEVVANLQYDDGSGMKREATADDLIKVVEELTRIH
Description: The binding affinities of heterobifunctional compounds to DDB1 were determined by SPR assay (FIG. 1A-1B). Purified DDB1ΔBPB proteins were immobilized on a CM5 sensor chip, and a dose range of compound solutions were injected in multi-cycle kinetic format. Data were fit to a steady state model to provide equivalent dissociation constants (Kd).
Human DDB1ΔBPB (UniProt: Q16531. BPB domain, aa 396 to 705, is replaced with a GNGNSG linker) coding sequences were cloned into pFastBacHTB vector and were expressed in SF9 cells using Bac-to-Bac baculovirus expression system (Thermo Fisher Scientific). The expression constructs include an N-terminal His6-tag to facilitate the purification, and a TEV protease cleavage site in between. DDB1ΔBPB proteins were obtained from supernatant of cell lysates and purified through sequential application of Ni affinity column (Ni-NTA column, Bio-Rad) and size-exclusion column (Superdex 200 16/600GL column, GE Healthcare) chromatography. Protein tags were cleaved off by TEV protease, and the resulting untagged proteins were further purified by Ni affinity column. Purified proteins were verified by immunoblotting, analytic SEC, and LC-MS.
SPR studies were performed on a Biacore X100 plus instrument (GE Healthcare). Immobilization of purified DDB1ΔBPB was carried out at 25° C. using a CM5 sensor chip. The surface was pre-equilibrated in HBS-EP running buffer (10 mM HEPES, pH7.4, 150 mM NaCl, 3 mM EDTA, 0.05% P20), before it was activated with EDC/NHS. DDB1ΔBPB proteins were immobilized by amine coupling to a density of 10,000-12,000 resonance units (RUs) on flow cell FC2, whereas flow cell FC1 was used as reference. Both protein immobilized and reference surfaces were deactivated with 1M ethanolamine. All interaction experiments were performed at 25° C. Test compounds were prepared and serially diluted in HBS-EP running buffer containing final 5% DMSO (6-point two-fold serial dilution, 100 μM-3.125 μM final concentration of compounds). Compound solutions were injected individually in multi-cycle kinetic format without regeneration (flow rate 30 μl/min, association time 120 s, dissociation time 120 s). Sensorgrams from reference surfaces and blank injections were subtracted from the raw data (double-referencing) and the data was solvent-corrected prior to analysis. All data were fit to steady state affinity model using Biacore Evaluation Software to provide equivalent dissociation constants (Kd).

[3] = molecular target: T2, CDK4 (Homo sapiens, UniProt P11802); assay: CDK4 percentage degradation in Calu-1 cells (immunoblotting); format: cell-based; settings: for inhibition at 0.2 µM: 200 nM, read-out: CDK4 Degradation (200 nM); for inhibition at 10 µM: read-out: CDK4 Degradation (10 μM)
T2 construct: endogenous in cells; host or cells: Calu-1
T2 sequence (P11802 2-303 limits assumed): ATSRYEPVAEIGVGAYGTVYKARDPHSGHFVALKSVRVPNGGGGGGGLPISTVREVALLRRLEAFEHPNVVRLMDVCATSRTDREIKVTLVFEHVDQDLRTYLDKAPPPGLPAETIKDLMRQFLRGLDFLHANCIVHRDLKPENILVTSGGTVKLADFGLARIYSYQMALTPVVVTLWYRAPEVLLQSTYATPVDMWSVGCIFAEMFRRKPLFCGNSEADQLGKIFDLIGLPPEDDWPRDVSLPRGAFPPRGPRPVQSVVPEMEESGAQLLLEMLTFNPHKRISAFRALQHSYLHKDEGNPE
T2 sequence (P24385 whole entry partner): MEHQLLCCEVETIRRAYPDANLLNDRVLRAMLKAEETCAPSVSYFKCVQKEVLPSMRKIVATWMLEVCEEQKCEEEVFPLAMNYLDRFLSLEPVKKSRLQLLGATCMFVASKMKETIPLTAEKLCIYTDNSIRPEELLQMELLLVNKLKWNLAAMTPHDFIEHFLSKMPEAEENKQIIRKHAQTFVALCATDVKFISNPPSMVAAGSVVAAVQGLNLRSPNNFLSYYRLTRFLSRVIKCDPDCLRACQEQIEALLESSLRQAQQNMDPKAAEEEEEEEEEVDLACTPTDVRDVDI
T2 sequence (Q16531 2-1140 limits assumed, further chain): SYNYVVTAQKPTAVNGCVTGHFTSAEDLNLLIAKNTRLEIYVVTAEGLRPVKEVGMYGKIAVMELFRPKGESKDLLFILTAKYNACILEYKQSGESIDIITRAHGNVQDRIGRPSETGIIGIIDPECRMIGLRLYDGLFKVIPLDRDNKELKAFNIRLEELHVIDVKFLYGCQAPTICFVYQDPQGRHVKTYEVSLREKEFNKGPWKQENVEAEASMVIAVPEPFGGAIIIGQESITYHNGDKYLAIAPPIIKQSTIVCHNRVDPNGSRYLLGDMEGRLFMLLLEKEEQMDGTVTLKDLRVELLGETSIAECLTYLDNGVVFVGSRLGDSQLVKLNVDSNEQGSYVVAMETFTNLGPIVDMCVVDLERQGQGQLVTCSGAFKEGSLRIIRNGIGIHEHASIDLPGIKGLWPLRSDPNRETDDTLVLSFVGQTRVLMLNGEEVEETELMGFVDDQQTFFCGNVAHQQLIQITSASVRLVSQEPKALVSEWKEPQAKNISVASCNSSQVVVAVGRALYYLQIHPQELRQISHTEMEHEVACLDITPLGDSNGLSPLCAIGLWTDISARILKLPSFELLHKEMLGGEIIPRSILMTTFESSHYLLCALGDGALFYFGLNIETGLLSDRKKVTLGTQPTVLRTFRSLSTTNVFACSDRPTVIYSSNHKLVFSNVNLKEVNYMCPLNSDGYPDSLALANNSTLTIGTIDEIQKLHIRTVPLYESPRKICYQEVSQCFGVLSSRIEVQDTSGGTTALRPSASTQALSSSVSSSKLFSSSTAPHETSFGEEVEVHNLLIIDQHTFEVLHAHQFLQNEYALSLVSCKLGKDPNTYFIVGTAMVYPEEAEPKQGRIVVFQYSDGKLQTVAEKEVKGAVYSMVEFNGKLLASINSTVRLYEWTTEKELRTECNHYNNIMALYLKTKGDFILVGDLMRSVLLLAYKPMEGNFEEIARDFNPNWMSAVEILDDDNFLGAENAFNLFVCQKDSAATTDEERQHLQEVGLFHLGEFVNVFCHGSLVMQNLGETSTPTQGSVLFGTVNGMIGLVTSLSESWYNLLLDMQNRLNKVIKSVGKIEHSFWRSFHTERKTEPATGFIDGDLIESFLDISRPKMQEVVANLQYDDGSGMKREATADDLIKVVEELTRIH
In short: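 Cultured cells were rinsed once in cold PBS and lysed in cold RIPA buffer containing protease and phosphatase inhibitors, with gentle agitation at 4° C. for 30 min. Lysates were centrifuged at 13,000 rpm for 10 min at 4° C., and protein was quantified by BCA. Samples were then separated by SDS-PAGE, detected with ECL, and the CDK4 bands quantified in Image Lab.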

Row | SMILES | Kd [2] [µM] | other results
1 | CCc1nc(NC(=O)c2ccc(NCCOCCOCCOCCOCCOCCNC(=O)CN3CCN(c4ccc(Nc5ncc6c(C)c(C(C)=O)c(=O)n(C7CCCC7)c6n5)nc4)CC3)cc2C)sc1C [CPD-047, 4-((1-(4-(6-((6-Acetyl-8-cyclopentyl-5-methyl-7-oxo-7,8-dihydropyrido[2,3-d]pyrimidin-2-yl)amino)pyridin-3-yl)piperazin-1-yl)-2-oxo-6,9,12,15,18-pentaoxa-3-azaicosan-20-yl)amino)-N-(4-ethyl-5-methylthiazol-2-yl)-2-methylbenzamide] | < 20 | CyclinD1 Degradation (200 nM) [1]: A (protein percentage degradation >=80%); inhibition at 0.2 µM ([3]; Calu-1 cells, 16 hours): > 80%
2 | Cc1cnc(NC(=O)c2ccc(NCCOCCOCCOCCOCCOCCNC(=O)CN3CCN(c4ccc(Nc5ncc6cc7n(c6n5)C5(CCCCC5)CNC7=O)nc4)CC3)cc2C)s1 [CPD-022, 2-Methyl-N-(5-methylthiazol-2-yl)-4-((2-oxo-1-(4-(6-((6′-oxo-7′,8′-dihydro-6′H-spiro[cyclohexane-1,9′-pyrazino[1′,2′:1,5]pyrrolo[2,3-d]pyrimidin]-2′-yl)amino)pyridin-3-yl)piperazin-1-yl)-6,9,12,15,18-pentaoxa-3-azaicosan-20-yl)amino)benzamide] | < 20 | CyclinD1 Degradation (10 μM) [1]: A (protein percentage degradation >= 80%); inhibition at 10 µM ([3]; Calu-1, 16 h): > 80%
3 | CC(=O)c1c(C)c2cnc(Nc3ccc(N4CCN(CC(=O)NCCOCCOCCOCCOCCOCCNc5ccc(C(=O)Nc6nc(C(C)C)c(C)s6)c(C)c5)CC4)cn3)nc2n(C2CCCC2)c1=O [CPD-043, 4-((1-(4-(6-((6-Acetyl-8-cyclopentyl-5-methyl-7-oxo-7,8-dihydropyrido[2,3-d]pyrimidin-2-yl)amino)pyridin-3-yl)piperazin-1-yl)-2-oxo-6,9,12,15,18-pentaoxa-3-azaicosan-20-yl)amino)-N-(4-isopropyl-5-methylthiazol-2-yl)-2-methylbenzamide] | < 20 | CyclinD1 Degradation (200 nM) [1]: A (protein percentage degradation >=80%); inhibition at 0.2 µM ([3]; Calu-1 cells, 16 hours): > 80%
4 | CC(=O)Nc1ccccc1C(=O)Nc1ccc(C)c(C2CC2)n1 [B1-73, 2-acetamido-N-(6-cyclopropyl-5-methylpyridin-2-yl)benzamide] | > 100 | –
5 | CC(=O)Nc1ccccc1C(=O)Nc1ccc(C)cn1 [B1-31, 2-acetamido-N-(5-methylpyridin-2-yl)benzamide] | > 100 | –
6 | COC(=O)c1nc(NC(=O)c2ccc(NCCOCCOCCOCCOCCOCCN)cc2C)sc1C [BL1-38, methyl 2-(4-((17-amino-3,6,9,12,15-pentaoxaheptadecyl)amino)-2-methylbenzamido)-5-methylthiazole-4-carboxylate] | < 20 | –
7 | CC(=O)c1c(C)c2cnc(Nc3ccc(N4CCN(CC(=O)NCCOCCOCCOCCC(=O)Nc5ccccc5C(=O)Nc5nc(C)c(C)s5)CC4)cn3)nc2n(C2CCCC2)c1=O [CPD-114, 2-(1-(4-(6-((6-Acetyl-8-cyclopentyl-5-methyl-7-oxo-7,8-dihydropyrido[2,3-d]pyrimidin-2-yl)amino)pyridin-3-yl)piperazin-1-yl)-2-oxo-6,9,12-trioxa-3-azapentadecan-15-amido)-N-(4,5-dimethylthiazol-2-yl)benzamide] | < 20 | CyclinD1 Degradation (200 nM) [1]: A (protein percentage degradation >=80%); inhibition at 0.2 µM ([3]; Calu-1 cells, 16 hours): > 80%
8 | Cc1ccccc1C(=O)Nc1nc(C)c(C)s1 [B1-1, N-(4,5-dimethylthiazol-2-yl)-2-methylbenzamide] | > 100 | –
9 | Cc1ccccc1C(=O)Nc1nc(Br)c(C)s1 [B1-2, N-(4-bromo-5-methylthiazol-2-yl)-2-methylbenzamide] | > 100 | –
10 | Cc1ccccc1C(=O)Nc1nc(C(C)C)c(C)s1 [B1-3, N-(4-isopropyl-5-methylthiazol-2-yl)-2-methylbenzamide] | 50 to 100 | –
11 | Cc1ccccc1C(=O)Nc1nc(C2CC2)c(C)s1 [B1-7, N-(4-cyclopropyl-5-methylthiazol-2-yl)-2-methylbenzamide] | > 100 | –
12 | CC(=O)Nc1ccccc1C(=O)Nc1nc(C)c(C)s1 [B1-6, 2-acetamido-N-(4,5-dimethylthiazol-2-yl)benzamide] | 20 to 50 | –
13 | CC(=O)c1c(C)c2cnc(Nc3ccc(N4CCN(CC(=O)NCCOCCOCCC(=O)Nc5ccccc5C(=O)Nc5nc(C)c(C)s5)CC4)cn3)nc2n(C2CCCC2)c1=O [CPD-115, 2-(3-(2-(2-(2-(4-(6-((6-Acetyl-8-cyclopentyl-5-methyl-7-oxo-7,8-dihydropyrido[2,3-d]pyrimidin-2-yl)amino)pyridin-3-yl)piperazin-1-yl)acetamido)ethoxy)ethoxy)propanamido)-N-(4,5-dimethylthiazol-2-yl)benzamide] | < 20 | CyclinD1 Degradation (200 nM) [1]: A (protein percentage degradation >=80%); inhibition at 0.2 µM ([3]; Calu-1 cells, 16 hours): > 80%
14 | Cc1cnc(NC(=O)c2ccc(NCCOCCOCCOCCOCCOCCNC(=O)CN3CCN(Cc4ccc(Nc5ncc(F)c(-c6cc(F)c7nc(C)n(C(C)C)c7c6)n5)nc4)CC3)cc2C)s1 [CPD-020, 4-((1-(4-((6-((5-Fluoro-4-(4-fluoro-1-isopropyl-2-methyl-1H-benzo[d]imidazol-6-yl)pyrimidin-2-yl)amino)pyridin-3-yl)methyl)piperazin-1-yl)-2-oxo-6,9,12,15,18-pentaoxa-3-azaicosan-20-yl)amino)-2-methyl-N-(5-methylthiazol-2-yl)benzamide] | < 20 | CyclinD1 Degradation (10 μM) [1]: D (protein percentage degradation < 30%); inhibition at 10 µM ([3]; Calu-1 cells, 10 μM, 16 hours): < 30%
15 | CNc1ccc(C(=O)Nc2ccc(C)cn2)c(NC(C)=O)c1 [B1-88, 2-acetamido-4-(methylamino)-N-(5-methylpyridin-2-yl)benzamide] | < 20 | –
16 | COc1ccc(NC(=O)c2ccccc2NC(C)=O)nc1 [B1-83, 2-acetamido-N-(5-methoxypyridin-2-yl)benzamide] | 20 to 50 | –
17 | Cc1ccccc1C(=O)Nc1cc(C)n(C)n1 [B1-8, N-(1,5-dimethyl-1H-pyrazol-3-yl)-2-methylbenzamide] | > 100 | –
18 | CC(=O)Nc1ccccc1C(=O)Nc1ccc(N(C)C)nn1 [B1-71, 2-acetamido-N-(6-(dimethylamino)pyridazin-3-yl)benzamide] | 20 to 50 | –
19 | CC(=O)NCCCCCCCCC(=O)Nc1ccccc1C(=O)Nc1nc(C)c(C)s1 [B1-79, 2-(9-acetamidononanamido)-N-(4,5-dimethylthiazol-2-yl)benzamide] | 20 to 50 | –
20 | COc1ccc(NC(=O)c2ccccc2NC(C)=O)nn1 [B1-53, 2-acetamido-N-(6-methoxypyridazin-3-yl)benzamide] | 20 to 50 | –
21 | CNc1ccc(C(=O)Nc2nc(C)c(C)s2)c(NC(C)=O)c1 [B1-67, 2-acetamido-N-(4,5-dimethylthiazol-2-yl)-4-(methylamino)benzamide] | 20 to 50 | –
22 | CC(=O)NCCOCCOCCNc1cccc(C(=O)Nc2nc(C)c(C)s2)c1C [B1-80, 3-((2-(2-(2-acetamidoethoxy)ethoxy)ethyl)amino)-N-(4,5-dimethylthiazol-2-yl)-2-methylbenzamide] | < 20 | –
23 | Cc1cnc(NC(=O)c2ccc(NCCOCCOCCOCCOCCOCCN)cc2C)s1 [BL1-24, 4-((17-amino-3,6,9,12,15-pentaoxaheptadecyl)amino)-2-methyl-N-(5-methylthiazol-2-yl)benzamide] | < 20 | –
24 | CCc1nc(NC(=O)c2ccccc2C)sc1C [B1-5, N-(4-ethyl-5-methylthiazol-2-yl)-2-methylbenzamide] | 20 to 50 | –
25 | COC(=O)c1nc(NC(=O)c2ccccc2C)sc1C [B1-4, methyl 5-methyl-2-(2-methylbenzamido)thiazole-4-carboxylate] | < 20 | –
26 | Cc1cc(NCCOCCOCCOCCOCCOCCN)ccc1C(=O)Nc1nc(C)c(C)s1 [BL1-36, 4-((17-amino-3,6,9,12,15-pentaoxaheptadecyl)amino)-N-(4,5-dimethylthiazol-2-yl)-2-methylbenzamide] | < 20 | –
